Measured values from patent publication US20260258420A1, “COMPOSITIONS AND METHODS FOR THE TREATMENT OF HUMAN PAPILLOMAVIRUS-DRIVEN CANCERS” (priority 2023, published 2026).

Assays:
[1] = system: HPV-positive cancer cell lines (UMSCC47, CaSki, and MS751); test: BrdU-TUNEL apoptosis assay, HPV-positive cell lines; assay type: cell-based; conditions: 50 nmol/L barasertib or 200 nmol/L alisertib, 72 hours or 2 doubling times
Protocol: BrdU positive apoptotic cells were detected and quantified. The bar graph indicates the percentage of apoptotic cells with fragmented DNA in HPV-positive and HPV-negative cell lines. Values are the means±the standard deviations for 3 independent experiments. FIG. 2B and FIG. 2C show immunoblots of cleaved PARP (Cl. PARP) and cleaved caspase-3 (Cl. Caspase-3) levels in 3-HPV positive and 3 HPV-negative cell lines after barasertib or alisertib treatment for 2 doubling times (FIG. 2B) or 72 hours (FIG. 2C). […] UM47, UMSCC47; GAPDH, glyceraldehyde 3-phosphate dehydrogenase.
To measure apoptosis, TUNEL staining was performed with an APO-BRDU Kit (BD Biosciences, San Jose, CA) and annexin V/propidium iodide staining with an FITC Annexin V Apoptosis Detection Kit PE (eBioscience, San Diego, CA) as described previously (Kalu, et al., Cancer Lett 2018; 431:64-72). […] Data were acquired with a 3-laser, 10-color Gallios flow cytometer (Beckman Coulter, Brea, CA) and analyzed using Kaluza software, RRID:SCR_016182 (Beckman Coulter, Brea, CA). […] Briefly, after drug treatment, cells were incubated with Senescence Green Probe, a fluorescence-based reagent that contains 2 galactoside moieties that make it specific to […]. The enzyme-cleaved product is retained within the cell, and it emits a fluorogenic signal that was measured at 490/514 nm using a flow cytometer. […]

[2] = system: HPV-negative cell lines; test: Rb family protein and cleaved caspase-3 levels in HPV-negative cells; assay type: cell-based
Text: The effect of RB1 silencing on the expression of other RB family members (RBL1, RBL2) was also examined. It was observed that the levels of RBL1 remained unchanged with the treatment. However, the protein levels of RBL2 decreased with RB1 silencing as well as with alisertib treatment. The effect of RB1 silencing on RBL2 was likely due to pooled siRNAs. Using RB1 shRNA, an effect of RB1 depletion on RBL2 was not observed, but the enhanced alisertib-induced apoptosis was observed, supporting a role for RB1 alone in this effect.
A decrease of Rb protein expression following Aurora kinase inhibition was noted, that may be related to G2/M cell cycle arrest. Alternatively, it may be that the HPV negative cells with low Rb expression are the ones that survive after Aurora inhibition. To test this at the single cell level, two HPV-negative cell lines were co-stained with anti-Rb labelled with FITC conjugate and anti-cleaved caspase-3 labelled with TRITC and treated with alisertib or vehicle control. As expected in these unsynchronized cells, Rb expression was detectable, but modestly heterogeneous in control cells. […] Consistent with prior data, cells with higher Rb levels have no or very low levels of cleaved caspase-3. Cells with lower Rb levels have modest levels of cleaved caspase-3.

[3] = system: HPV-positive cell lines (CASKI and SIHA); test: Apoptosis immunoblot after BUB1B or MAD2L1 siRNA; assay type: cell-based; conditions: 300 nmol/L, 24 hours
Protocol: FIG. 5A, two HPV-positive cell lines (CASKI and SIHA) were transfected with BUB1B or MAD2L1 siRNA and then treated for 24 hours with 300 nmol/L alisertib before lysis and immunoblotting with the indicated antibodies. FIG. 5B, TRIP13 was transiently overexpressed (Ox) in 2 HPV-positive cell lines that were treated for 24 hours with 300 nmol/L alisertib before lysis and immunoblotting for the indicated proteins. FIG. 5C, HPV-positive cell lines with TRIP13 overexpression were treated with 300 nmol/L alisertib for 32 hours and then stained for annexin V-PE/7AAD staining and analysis with flow cytometry to measure apoptosis. The bar graph represents the ratio of apoptosis (late plus early) among different groups. Values are the means±the standard deviations for 3 independent experiments. ** P≤0.01; *** P≤0.001; unpaired, 2-tailed Student t-test. FIG. 5D, HN31 (left panel) and MDA886LN (right panel) cells expressing RB1 or control shRNA were transfected with a plasmid for TRIP13. After 24 hours, cells were treated with 300 nmol/L alisertib and then lysed for immunoblotting. Cl, cleaved; Fl, full length; GAPDH, glyceraldehyde 3-phosphate dehydrogenase. […]

[4] = human clinical trials; cited from earlier work
[5] = two HPV-negative cell lines, vs control cells

## COc1cc(Nc2ncc3c(n2)-c2ccc(Cl)cc2C(c2c(F)cccc2OC)=NC3)ccc1C(=O)O [ALISERTIB, alisertib]
[1]
  TUNEL-positive apoptotic nuclei: significantly increased
[2]
  protein levels of RBL2: decreased
[2]; [5]
  Rb expression (single cell staining): notably lower
  cleaved caspase 3 (single cell staining): slightly higher
[3]
  apoptosis with reduced levels of Mad2 or BUB1B: rescued the cells from alisertib-induced apoptosis
[4]
  common toxicities: anemia, thrombocytopenia, and neutropenia
